Measured values from patent US8273760B2, “Indolo[3,2-c]quinoline compounds” (Kaohsiung Medical University, priority 2008, dated 2012).

Experiments:
HT29 = assay: In vitro anticancer assay (NCI panel), HT29; format: cell-based; settings: Homo sapiens, HT-29; HT29, colon cancer
Procedure: (§1) Selected compounds were evaluated in vitro against the NCI's full panel of 60 cancer cell lines derived from nine cancer cell types, including: leukemia (CCRF-CEM, HL-60 (TB), K-562, MOLT-4, RPMI-8226, and SR); non-small cell lung cancer (A549/ATCC, EKVX, HOP-62, HOP-92, NCI-H226, NCI-H23, NCI-H322M, and NCI-H522); colon cancer (COLO 205, HCC-2998, HCT-116, HCT-15, HT29, KM12, and SW-620); CNS cancer (SF-268, SF-295, SF-539, SNB-19, SNB-75, and U251); melanoma (LOX IMVI, MALME-3M, M14, SK-MEL-2, SK-MEL-28, SK-MEL-5, UACC-62, and UACC-257); ovarian cancer (IGROV1, OVCAR-3, OVCAR-4, OVCAR-5, OVCAR-8, and SK-OV-3); renal cancer (786-0, A498, ACHN, CAKI-1, RXF 393, SN12C, TK-10, and UO-31); prostate cancer (PC-3 and DU-145); and breast cancer (MCF7, MCF7/ADR-RES, MDA-MB-231/ATCC, HS 578T, MDA-MB-435, MDA-N, and T-47D). For each compound, dose-response curves for each cell line were measured with five different drug concentrations, and the concentration causing 50% cell growth inhibition (GI50) compared with the control was calculated. The mean GI50 values of each tested compound for all the 60 tumor cell lines were also calculated.

SR = assay: In vitro anticancer assay (NCI panel), SR; format: cell-based; settings: Homo sapiens, leukemia
Procedure: as §1

SNB-19 = assay: In vitro anticancer assay (NCI panel), SNB-19; format: cell-based; settings: Homo sapiens; SNB-19, CNS cancer
Procedure: as §1

MDA-MB-231/ATCC = assay: In vitro anticancer assay (NCI panel), MDA-MB-231/ATCC; format: cell-based; settings: Homo sapiens, breast cancer
Procedure: as §1

HOP-62 = assay: In vitro anticancer assay (NCI panel), HOP-62; format: cell-based; settings: Homo sapiens; HOP-62, non-small cell lung cancer
Procedure: as §1

MCF7 = assay: In vitro anticancer assay (NCI panel), MCF7; format: cell-based; settings: Homo sapiens; MCF7, breast cancer
Procedure: as §1

HL-60 (TB) = assay: In vitro anticancer assay (NCI 60 cell line panel), HL-60 (TB); format: cell-based; settings: Homo sapiens, leukemia
Procedure: as §1

[1] = system: NCI's full panel of 60 cancer cell lines; assay: In vitro anticancer assay, all cell lines of the NCI panel; format: cell-based, human; settings: Homo sapiens, mean values of over all cell lines tested; read-out: MG MID (mean GI50)
Procedure: as §1

OVCAR-5 = assay: In vitro anticancer assay (NCI panel), OVCAR-5; format: cell-based; settings: Homo sapiens; OVCAR-5, ovarian cancer
Procedure: as §1

K-562 = assay: In vitro anticancer assay (NCI panel), K-562; format: cell-based; settings: Homo sapiens, K562; K-562, leukemia
Procedure: as §1

LOX IMVI = assay: In vitro anticancer assay (NCI panel), LOX IMVI; format: cell-based; settings: Homo sapiens, melanoma
Procedure: as §1

NCI-H460 = assay: In vitro anticancer assay (NCI panel), NCI-H460; format: cell-based; settings: Homo sapiens; NCI-H460, non-small cell lung cancer
Procedure: as §1

A549/ATCC = assay: In vitro anticancer assay (NCI panel), A549/ATCC; format: cell-based; settings: Homo sapiens, non-small cell lung cancer
Procedure: as §1

OVCAR-3 = assay: In vitro anticancer assay (NCI panel), OVCAR-3; format: cell-based; settings: Homo sapiens; OVCAR-3, ovarian cancer
Procedure: as §1

SK-MEL-2 = assay: In vitro anticancer assay (NCI panel), SK-MEL-2; format: cell-based; settings: Homo sapiens; SK-MEL-2, melanoma
Procedure: as §1

SN12C = assay: In vitro anticancer assay (NCI panel), SN12C; format: cell-based; settings: Homo sapiens, renal cancer
Procedure: as §1

ACHN = assay: In vitro anticancer assay (NCI panel), ACHN; format: cell-based; settings: Homo sapiens, renal cancer
Procedure: as §1

SF-268 = assay: In vitro anticancer assay (NCI panel), SF-268; format: cell-based; settings: Homo sapiens; SF-268, CNS cancer
Procedure: as §1

COLO 205 = assay: In vitro anticancer assay (NCI panel), COLO 205; format: cell-based; settings: Homo sapiens; COLO 205, colon cancer
Procedure: as §1

SF-295 = assay: In vitro anticancer assay (NCI panel), SF-295; format: cell-based; settings: Homo sapiens; SF-295, CNS cancer
Procedure: as §1

MDA-MB-435 = assay: In vitro anticancer assay (NCI panel), MDA-MB-435; format: cell-based; settings: Homo sapiens; MDA-MB-435, breast cancer
Procedure: as §1

HCT-116 = assay: In vitro anticancer assay (NCI panel), HCT-116; format: cell-based; settings: Homo sapiens; HCT-116, colon cancer
Procedure: as §1

OVCAR-8 = assay: In vitro anticancer assay (NCI panel), OVCAR-8; format: cell-based; settings: Homo sapiens; OVCAR-8, ovarian cancer
Procedure: as §1

UACC-62 = assay: In vitro anticancer assay (NCI panel), UACC-62; format: cell-based; settings: Homo sapiens; UACC-62, melanoma
Procedure: as §1

786-0 = assay: In vitro anticancer assay (NCI panel), 786-0; format: cell-based; settings: Homo sapiens; 786-0, renal cancer
Procedure: as §1

DU-145 = assay: In vitro anticancer assay (NCI panel), DU-145; format: cell-based; settings: Homo sapiens; DU-145, prostate cancer
Procedure: as §1

telomerase = telomerase (Homo sapiens, UniProt O14746); assay: Telomeric Repeat Amplification Protocol (TRAP) assay, cell-free; settings: 0.5 μg total cell extract from H1299 human lung cancer cells, FIG. 1
Chain of telomerase (O14746 whole entry): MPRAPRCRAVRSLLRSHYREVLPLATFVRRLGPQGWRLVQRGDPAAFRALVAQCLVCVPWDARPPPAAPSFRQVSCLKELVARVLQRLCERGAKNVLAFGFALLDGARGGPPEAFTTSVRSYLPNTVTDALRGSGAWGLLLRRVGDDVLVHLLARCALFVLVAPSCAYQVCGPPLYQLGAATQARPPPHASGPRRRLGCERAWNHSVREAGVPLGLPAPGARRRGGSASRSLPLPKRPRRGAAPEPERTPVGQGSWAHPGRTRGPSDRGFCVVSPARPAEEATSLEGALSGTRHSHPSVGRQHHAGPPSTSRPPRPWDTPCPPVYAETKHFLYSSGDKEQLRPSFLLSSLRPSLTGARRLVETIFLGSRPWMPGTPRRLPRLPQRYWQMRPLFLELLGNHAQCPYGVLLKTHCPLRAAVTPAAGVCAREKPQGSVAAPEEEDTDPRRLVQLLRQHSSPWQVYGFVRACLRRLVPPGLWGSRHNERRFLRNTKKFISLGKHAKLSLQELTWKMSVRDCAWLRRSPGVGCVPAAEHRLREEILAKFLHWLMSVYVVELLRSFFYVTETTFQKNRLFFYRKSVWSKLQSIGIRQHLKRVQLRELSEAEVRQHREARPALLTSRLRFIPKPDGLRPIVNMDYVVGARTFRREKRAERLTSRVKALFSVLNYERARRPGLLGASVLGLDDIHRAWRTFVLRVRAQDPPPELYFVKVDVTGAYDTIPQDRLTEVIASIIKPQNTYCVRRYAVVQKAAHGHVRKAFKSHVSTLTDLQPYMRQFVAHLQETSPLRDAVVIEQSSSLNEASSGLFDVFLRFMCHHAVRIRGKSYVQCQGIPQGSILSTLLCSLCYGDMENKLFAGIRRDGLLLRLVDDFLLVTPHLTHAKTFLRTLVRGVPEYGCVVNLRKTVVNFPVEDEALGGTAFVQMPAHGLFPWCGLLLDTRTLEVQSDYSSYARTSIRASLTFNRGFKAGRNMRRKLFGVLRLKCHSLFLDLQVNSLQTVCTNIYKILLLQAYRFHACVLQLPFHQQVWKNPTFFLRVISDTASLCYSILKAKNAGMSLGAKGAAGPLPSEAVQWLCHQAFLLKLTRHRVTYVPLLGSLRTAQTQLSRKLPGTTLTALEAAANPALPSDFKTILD

PC-3 = assay: In vitro anticancer assay (NCI panel), PC-3; format: cell-based; settings: Homo sapiens; PC-3, prostate cancer
Procedure: as §1

[2] = system: human leukemia HL-60 cells; settings: previous studies, read-out: GI50 (50% cell growth inhibition); cited from earlier work

| Compound | GI50 (HT29) [nM] | GI50 (SR) [nM] | GI50 (SNB-19) [nM] | GI50 (MDA-MB-231/ATCC) [nM] | GI50 (HOP-62) [nM] | GI50 (MCF7) [nM] | GI50 (HL-60 (TB)) [nM] | GI50 [1] [nM] | GI50 (OVCAR-5) [nM] | GI50 (K-562) [nM] | GI50 (LOX IMVI) [nM] | GI50 (NCI-H460) [nM] | GI50 (A549/ATCC) [nM] | GI50 (OVCAR-3) [nM] | GI50 (SK-MEL-2) [nM] | melting point [°C] | GI50 (SN12C) [nM] | GI50 (ACHN) [nM] | GI50 (SF-268) [nM] | GI50 (COLO 205) [nM] | other results |
| --- | --- | --- | --- | --- | --- | --- | --- | --- | --- | --- | --- | --- | --- | --- | --- | --- | --- | --- | --- | --- | --- |
| Cl.Nc1nc2ccccc2c2[nH]c3ccccc3c12 [Compound 7e, 11H-Indolo[3,2-c]quinolin-6-ylamine hydrochloride] | 510 | 640 | 1100 | 1220 | 1130 | 1190 | 1980 | 1290 | 1840 | 620 | 1050 | 410 | 1090 | 1420 | 1540 | 377 to 378 | 1240 | 480 | 1970 | 1070 | GI50 (SF-295): 1030 nM; GI50 (MDA-MB-435): 940 nM; GI50 (HCT-116): 500 nM; GI50 (OVCAR-8): 980 nM; GI50 (UACC-62): 13500 nM; GI50 (786-0): 1120 nM; GI50 (DU-145): 1940 nM |
| Cl.c1ccc2c(c1)nc(NCCCNCCCNc1nc3ccccc3c3[nH]c4ccccc4c13)c1c3ccccc3[nH]c21 [Compound 8a, N,N-bis-[3-(11H-indolo[3,2-c]quinolin-6-yl)aminopropyl]amine hydrochloride] | 50 | 30 | 70 | 180 | 50 | 10 | 40 | 150 | 220 | 40 | 70 | 40 | 60 | 520 | 550 | 107 to 108 | 30 | 60 | 30 | 180 | concentration that completely inhibited telomerase activity (telomerase): approximately 0.02 nM; GI50 (PC-3): 360 nM; GI50 (SF-295): 100 nM; GI50 (MDA-MB-435): 850 nM; GI50 (HCT-116): 170 nM; GI50 (OVCAR-8): 40 nM; GI50 (UACC-62): 220 nM; GI50 (786-0): 70 nM; GI50 (DU-145): 130 nM |
| Cl.OCCNCCNc1nc2ccccc2c2[nH]c3ccccc3c12 [Compound 9, 2-[2-(11H-Indolo[3,2-c]quinolin-6-ylamino)ethylamino]ethanol hydrochloride] | 560 | 900 | 2100 | 1240 | 370 | 1240 | 1310 | 1070 | 580 | 1550 | 440 | 1460 | 980 | 1310 | 2250 | 276 | 1260 | 380 | 1360 | 1760 | GI50 (PC-3): 880 nM; GI50 (SF-295): 1410 nM; GI50 (MDA-MB-435): 1460 nM; GI50 (HCT-116): 190 nM; GI50 (OVCAR-8): 810 nM; GI50 (UACC-62): 2000 nM; GI50 (786-0): 340 nM; GI50 (DU-145): 740 nM |
| CN(C)CCNc1nc2ccccc2c2[nH]c3ccccc3c12 [IQDMA, N′-(11H-indolo[3,2-c]quinolin-6-yl)-N,N-dimethyl-ethane-1,2-diamine] | – | – | – | – | – | – | – | – | – | – | – | – | – | – | – | – | – | – | – | – | GI50 [2]: 1980 nM |
